Earlier results, collected in patent US11398630B2, “Method of generating energy from a hydrazide containing anode fuel, and fuel cell” (priority 2019, dated 2022).
Like-named read-outs stand apart in the source and are kept apart here.

Tests used:
[1] = ambient conditions
[2] = system: rat

Structure (SMILES)	Toxicity-LD50 oral rat ([2]; oral, rat)	further results
NNC(=O)NN [Carbohydrazide, carbohydrazide]	>5,000 mg/kg	miscibility with water [1]: ^aUnder ambient conditions, carbohydrazide is a solid, but it is completely miscible with water.; toxicity in words ([2]; compared with hydrazine): nontoxic; LD50 ([2]; rat, printed as mg/kg-rat, route not given): > 5,000 mg/kg
B [Borohydride]	160 mg/kg	
COC [Dimethyl ether]	>5,000 mg/kg	
CCO [Ethanol]		Toxicity-LD50 oral rat ([2]; rat, in vivo, po): >5,000 mg/kg
OCC(O)CO [Glycerol]	>5,000 mg/kg	
CO [Methanol]	>5,000 mg/kg	
